From patent US20210317134A1, “UBIQUITIN-SPECIFIC-PROCESSING PROTEASE 7 (USP7) MODULATORS AND USES THEREOF” (RAPT THERAPEUTICS, INC., priority 2019, published 2021)
pIC50: −log10 of the molar value.

Target: USP7 (Homo sapiens, UniProt Q93009)
Assay: USP7 inhibitory potency (Table 1)
Format: biochemical

Sequence of USP7 (Q93009 whole entry): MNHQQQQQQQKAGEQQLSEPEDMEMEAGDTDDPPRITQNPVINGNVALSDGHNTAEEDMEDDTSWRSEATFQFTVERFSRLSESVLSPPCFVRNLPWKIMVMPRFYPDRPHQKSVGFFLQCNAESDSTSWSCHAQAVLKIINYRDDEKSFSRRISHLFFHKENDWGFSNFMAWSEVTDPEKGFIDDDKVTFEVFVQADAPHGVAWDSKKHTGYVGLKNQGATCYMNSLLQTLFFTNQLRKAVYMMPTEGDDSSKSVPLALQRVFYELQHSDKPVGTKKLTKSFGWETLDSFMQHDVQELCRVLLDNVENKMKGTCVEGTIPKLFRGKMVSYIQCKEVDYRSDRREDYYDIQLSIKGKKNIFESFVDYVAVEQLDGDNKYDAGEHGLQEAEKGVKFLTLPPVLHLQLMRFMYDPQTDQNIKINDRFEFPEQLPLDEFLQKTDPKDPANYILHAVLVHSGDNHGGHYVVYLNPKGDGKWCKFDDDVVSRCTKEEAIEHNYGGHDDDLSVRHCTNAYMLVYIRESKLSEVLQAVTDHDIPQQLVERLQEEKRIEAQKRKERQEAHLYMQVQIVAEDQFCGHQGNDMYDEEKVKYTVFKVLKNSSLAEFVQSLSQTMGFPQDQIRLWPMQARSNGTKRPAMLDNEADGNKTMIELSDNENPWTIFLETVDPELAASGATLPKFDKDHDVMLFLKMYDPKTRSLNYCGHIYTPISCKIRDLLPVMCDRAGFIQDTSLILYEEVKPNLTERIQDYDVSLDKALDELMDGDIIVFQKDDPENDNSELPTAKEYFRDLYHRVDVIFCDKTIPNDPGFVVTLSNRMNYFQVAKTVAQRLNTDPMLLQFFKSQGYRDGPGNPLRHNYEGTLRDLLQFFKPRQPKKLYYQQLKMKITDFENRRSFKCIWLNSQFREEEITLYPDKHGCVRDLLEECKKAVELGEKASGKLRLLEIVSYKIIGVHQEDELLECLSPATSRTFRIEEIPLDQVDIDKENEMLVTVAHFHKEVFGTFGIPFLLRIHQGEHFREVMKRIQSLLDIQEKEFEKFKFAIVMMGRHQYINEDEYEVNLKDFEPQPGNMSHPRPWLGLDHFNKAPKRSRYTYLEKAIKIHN

Compound	pIC50
COc1ccc2nccc(-c3cc(Cl)cc4c3O[C@@H](c3onc5c3CNCC5)C4)c2c1 [(R)-3-(5-chloro-7-(6-methoxyquinolin-4-yl)-2,3-dihydrobenzofuran-2-yl)-4,5,6,7-tetrahydroisoxazolo[4,3-c]pyridine]	4.52 to 5.00
Cc1cc2ncnc(-c3cc(Cl)cc4c3O[C@@H](c3onc5c3CNCC5)C4)c2o1 [(R)-3-(5-chloro-7-(6-methylfuro[3,2-d]pyrimidin-4-yl)-2,3-dihydrobenzofuran-2-yl)-4,5,6,7-tetrahydroisoxazolo[4,3-c]pyridine]	> 6.00
Cc1cc2ncnc(-c3cc(Cl)cc4c3O[C@@H](c3onc5c3CNCC5)C4)c2s1 [(R)-3-(5-chloro-7-(6-methylthieno[3,2-d]pyrimidin-4-yl)-2,3-dihydrobenzofuran-2-yl)-4,5,6,7-tetrahydroisoxazolo[4,3-c]pyridine]	> 6.00
Cc1ccc(S(=O)(=O)N2Cc3nccc(-c4cc(Cl)cc5c4O[C@@H](c4onc6c4CNCC6)C5)c3C2)cc1 [(R)-3-(5-chloro-7-(6-tosyl-6,7-dihydro-5H-pyrrolo[3,4-b]pyridin-4-yl)-2,3-dihydrobenzofuran-2-yl)-4,5,6,7-tetrahydroisoxazolo[4,3-c]pyridine]	4.52 to 5.00
CS(=O)(=O)c1ccc2c(-c3cc(Cl)cc4c3O[C@@H](c3onc5c3CNCC5)C4)ccnc2c1 [(R)-3-(5-chloro-7-(7-(methylsulfonyl)quinolin-4-yl)-2,3-dihydrobenzofuran-2-yl)-4,5,6,7-tetrahydroisoxazolo[4,3-c]pyridine]	5.00 to 6.00
FC(F)(F)c1ccc2c(-c3cc(Cl)cc4c3O[C@@H](c3onc5c3CNCC5)C4)ccnc2c1 [(R)-3-(5-chloro-7-(7-(trifluoromethyl)quinolin-4-yl)-2,3-dihydrobenzofuran-2-yl)-4,5,6,7-tetrahydroisoxazolo[4,3-c]pyridine]	5.00 to 6.00
Clc1cc2c(c(-c3ncnc4cc(Cl)ccc34)c1)O[C@@H](c1onc3c1CNCC3)C2 [(R)-3-(5-chloro-7-(7-chloroquinazolin-4-yl)-2,3-dihydrobenzofuran-2-yl)-4,5,6,7-tetrahydroisoxazolo[4,3-c]pyridine]	5.00 to 6.00
Clc1cc2c(c(-c3ccnc4cc(Cl)ccc34)c1)O[C@@H](c1onc3c1CNCC3)C2 [(R)-3-(5-chloro-7-(7-chloroquinolin-4-yl)-2,3-dihydrobenzofuran-2-yl)-4,5,6,7-tetrahydroisoxazolo[4,3-c]pyridine]	> 6.00
Fc1ccc2c(-c3cc(Cl)cc4c3O[C@@H](c3onc5c3CNCC5)C4)ccnc2c1 [(R)-3-(5-chloro-7-(7-fluoroquinolin-4-yl)-2,3-dihydrobenzofuran-2-yl)-4,5,6,7-tetrahydroisoxazolo[4,3-c]pyridine]	> 6.00
COc1ccc2c(-c3cc(Cl)cc4c3O[C@@H](c3onc5c3CNCC5)C4)ccnc2c1 [(R)-3-(5-chloro-7-(7-methoxyquinolin-4-yl)-2,3-dihydrobenzofuran-2-yl)-4,5,6,7-tetrahydroisoxazolo[4,3-c]pyridine]	> 6.00
Fc1cccc2c(-c3cc(Cl)cc4c3O[C@@H](c3onc5c3CNCC5)C4)ccnc12 [(R)-3-(5-chloro-7-(8-fluoroquinolin-4-yl)-2,3-dihydrobenzofuran-2-yl)-4,5,6,7-tetrahydroisoxazolo[4,3-c]pyridine]	5.00 to 6.00
Clc1cc2c(c(-c3ncnc4ccoc34)c1)O[C@@H](c1onc3c1CNCC3)C2 [(R)-3-(5-chloro-7-(furo[3,2-d]pyrimidin-4-yl)-2,3-dihydrobenzofuran-2-yl)-4,5,6,7-tetrahydroisoxazolo[4,3-c]pyridine]	> 6.00
CS(=O)(=O)N1CCc2noc([C@H]3Cc4cc(Cl)cc(-c5ncnc6ccoc56)c4O3)c2C1 [(R)-3-(5-chloro-7-(furo[3,2-d]pyrimidin-4-yl)-2,3-dihydrobenzofuran-2-yl)-5-(methylsulfonyl)-4,5,6,7-tetrahydroisoxazolo[4,3-c]pyridine]	5.00 to 6.00
CCN1CCc2noc([C@H]3Cc4cc(Cl)cc(-c5ncnc6ccoc56)c4O3)c2C1 [(R)-3-(5-chloro-7-(furo[3,2-d]pyrimidin-4-yl)-2,3-dihydrobenzofuran-2-yl)-5-ethyl-4,5,6,7-tetrahydroisoxazolo[4,3-c]pyridine]	5.00 to 6.00
Clc1cc2c(c(-c3ccnc4ccnn34)c1)O[C@@H](c1onc3c1CNCC3)C2 [(R)-3-(5-chloro-7-(pyrazolo[1,5-a]pyrimidin-7-yl)-2,3-dihydrobenzofuran-2-yl)-4,5,6,7-tetrahydroisoxazolo[4,3-c]pyridine]	> 6.00
Clc1cc2c(c(-c3ccnc4ccccc34)c1)O[C@@H](c1onc3c1CNCC3)C2 [(R)-3-(5-chloro-7-(quinolin-4-yl)-2,3-dihydrobenzofuran-2-yl)-4,5,6,7-tetrahydroisoxazolo[4,3-c]pyridine]	> 6.00
Clc1cc2c(c(-c3ccnc4ccsc34)c1)O[C@@H](c1onc3c1CNCC3)C2 [(R)-3-(5-chloro-7-(thieno[3,2-b]pyridin-7-yl)-2,3-dihydrobenzofuran-2-yl)-4,5,6,7-tetrahydroisoxazolo[4,3-c]pyridine]	> 6.00
FC(F)(F)CN1CCc2noc([C@H]3Cc4cc(Cl)cc(-c5ccnc6ccsc56)c4O3)c2C1 [(R)-3-(5-chloro-7-(thieno[3,2-b]pyridin-7-yl)-2,3-dihydrobenzofuran-2-yl)-5-(2,2,2-trifluoroethyl)-4,5,6,7-tetrahydroisoxazolo[4,3-c]pyridine]	> 6.00
CCN1CCc2noc([C@H]3Cc4cc(Cl)cc(-c5ccnc6ccsc56)c4O3)c2C1 [(R)-3-(5-chloro-7-(thieno[3,2-b]pyridin-7-yl)-2,3-dihydrobenzofuran-2-yl)-5-ethyl-4,5,6,7-tetrahydroisoxazolo[4,3-c]pyridine]	> 6.00
CC(C)N1CCc2noc([C@H]3Cc4cc(Cl)cc(-c5ccnc6ccsc56)c4O3)c2C1 [(R)-3-(5-chloro-7-(thieno[3,2-b]pyridin-7-yl)-2,3-dihydrobenzofuran-2-yl)-5-isopropyl-4,5,6,7-tetrahydroisoxazolo[4,3-c]pyridine]	> 6.00
CN1CCc2noc([C@H]3Cc4cc(Cl)cc(-c5ccnc6ccsc56)c4O3)c2C1 [(R)-3-(5-chloro-7-(thieno[3,2-b]pyridin-7-yl)-2,3-dihydrobenzofuran-2-yl)-5-methyl-4,5,6,7-tetrahydroisoxazolo[4,3-c]pyridine]	> 6.00
Clc1cc2c(c(-c3ncnc4ccsc34)c1)O[C@@H](c1onc3c1CNCC3)C2 [(R)-3-(5-chloro-7-(thieno[3,2-d]pyrimidin-4-yl)-2,3-dihydrobenzofuran-2-yl)-4,5,6,7-tetrahydroisoxazolo[4,3-c]pyridine]	> 6.00
Clc1cc2c(c(-c3ccnc4cc(-c5cc[nH]n5)sc34)c1)O[C@@H](c1onc3c1CNCC3)C2 [(R)-3-(7-(2-(1H-pyrazol-3-yl)thieno[3,2-b]pyridin-7-yl)-5-chloro-2,3-dihydrobenzofuran-2-yl)-4,5,6,7-tetrahydroisoxazolo[4,3-c]pyridine]	> 6.00
OC1(c2cc3nccc(-c4cc(Cl)cc5c4O[C@@H](c4onc6c4CNCC6)C5)c3s2)CNC1 [(R)-3-(7-(5-chloro-2-(4,5,6,7-tetrahydroisoxazolo[4,3-c]pyridin-3-yl)-2,3-dihydrobenzofuran-7-yl)thieno[3,2-b]pyridin-2-yl)azetidin-3-ol]	5.00 to 6.00
